Results as given in ChEMBL document CHEMBL1144385, “Solid-phase synthesis and antibacterial evaluations of N-demethylvancomycin derivatives” (2005).
Values after ≈ are worked out from the molar mass of the structure shown.

Columns and labels:
Format in all cases: functional
Enterococcus faecalis [1] = experiment: Minimum inhibitory concentration against growth of vancomycin-resistant Enterococcus faecalis (ATCC 51299)
Staphylococcus aureus [2] = experiment: Minimum inhibitory concentration against growth of […] aureus (ATCC 29213)
Enterococcus faecalis [3] = experiment: Minimum inhibitory concentration against growth of Enterococcus faecalis (ATCC 29212)
Staphylococcus aureus [4] = experiment: Minimum inhibitory concentration against growth of Methicillin resistant […] aureus

Structure (SMILES)	MIC (Enterococcus faecalis [1])	MIC (Staphylococcus aureus [2])	MIC (Enterococcus faecalis [3])	MIC (Staphylococcus aureus [4])
CC(C)C[C@@H](N)C(=O)N[C@H]1C(=O)N[C@@H](CC(N)=O)C(=O)N[C@H]2C(=O)N[C@H]3C(=O)N[C@H](C(=O)N[C@H](C(=O)NCC(=O)O)c4cc(O)cc(O)c4-c4cc3ccc4O)[C@H](O)c3ccc(c(Cl)c3)Oc3cc2cc(c3O[C@@H]2O[C@@H](CO)[C@@H](O)[C@H](O)[C@@H]2O[C@H]2C[C@](C)(Nc3ccc(F)cc3)[C@H](O)[C@H](C)O2)Oc2ccc(cc2Cl)[C@H]1O	> 10 µg/mL	2.5 µg/mL (≈ 1.58 µM)	2.5 µg/mL (≈ 1.58 µM)	2.5 µg/mL (≈ 1.58 µM)
CCC(CC)N[C@H](CC(C)C)C(=O)N[C@H]1C(=O)N[C@@H](CC(N)=O)C(=O)N[C@H]2C(=O)N[C@H]3C(=O)N[C@H](C(=O)N[C@H](C(=O)NCC(=O)O)c4cc(O)cc(O)c4-c4cc3ccc4O)[C@H](O)c3ccc(c(Cl)c3)Oc3cc2cc(c3O[C@@H]2O[C@@H](CO)[C@@H](O)[C@H](O)[C@@H]2O[C@H]2C[C@](C)(Nc3ccc(F)cc3)[C@H](O)[C@H](C)O2)Oc2ccc(cc2Cl)[C@H]1O	> 10 µg/mL	> 10 µg/mL	> 10 µg/mL	> 10 µg/mL
CCCN[C@H](CC(C)C)C(=O)N[C@H]1C(=O)N[C@@H](CC(N)=O)C(=O)N[C@H]2C(=O)N[C@H]3C(=O)N[C@H](C(=O)N[C@H](C(=O)NCC(=O)O)c4cc(O)cc(O)c4-c4cc3ccc4O)[C@H](O)c3ccc(c(Cl)c3)Oc3cc2cc(c3O[C@@H]2O[C@@H](CO)[C@@H](O)[C@H](O)[C@@H]2O[C@H]2C[C@](C)(Nc3ccc(-c4ccccc4)cc3)[C@H](O)[C@H](C)O2)Oc2ccc(cc2Cl)[C@H]1O	> 10 µg/mL	5 µg/mL (≈ 2.96 µM)	10 µg/mL (≈ 5.93 µM)	5 µg/mL (≈ 2.96 µM)
CCC(CC)N[C@H](CC(C)C)C(=O)N[C@H]1C(=O)N[C@@H](CC(N)=O)C(=O)N[C@H]2C(=O)N[C@H]3C(=O)N[C@H](C(=O)N[C@H](C(=O)NCC(=O)O)c4cc(O)cc(O)c4-c4cc3ccc4O)[C@H](O)c3ccc(c(Cl)c3)Oc3cc2cc(c3O[C@@H]2O[C@@H](CO)[C@@H](O)[C@H](O)[C@@H]2O[C@H]2C[C@](C)(Nc3ccc(-c4ccccc4)cc3)[C@H](O)[C@H](C)O2)Oc2ccc(cc2Cl)[C@H]1O	> 10 µg/mL	5 µg/mL (≈ 2.92 µM)	5 µg/mL (≈ 2.92 µM)	2.5 µg/mL (≈ 1.46 µM)
CCCN(CCC)[C@H](CC(C)C)C(=O)N[C@H]1C(=O)N[C@@H](CC(N)=O)C(=O)N[C@H]2C(=O)N[C@H]3C(=O)N[C@H](C(=O)N[C@H](C(=O)NCC(=O)O)c4cc(O)cc(O)c4-c4cc3ccc4O)[C@H](O)c3ccc(c(Cl)c3)Oc3cc2cc(c3O[C@@H]2O[C@@H](CO)[C@@H](O)[C@H](O)[C@@H]2O[C@H]2C[C@](C)(Nc3ccc(F)cc3)[C@H](O)[C@H](C)O2)Oc2ccc(cc2Cl)[C@H]1O	> 10 µg/mL	> 10 µg/mL	> 10 µg/mL	> 10 µg/mL
CCCN(CCC)[C@H](CC(C)C)C(=O)N[C@H]1C(=O)N[C@@H](CC(N)=O)C(=O)N[C@H]2C(=O)N[C@H]3C(=O)N[C@H](C(=O)N[C@H](C(=O)NCC(=O)O)c4cc(O)cc(O)c4-c4cc3ccc4O)[C@H](O)c3ccc(c(Cl)c3)Oc3cc2cc(c3O[C@@H]2O[C@@H](CO)[C@@H](O)[C@H](O)[C@@H]2O[C@H]2C[C@](C)(Nc3ccc(OC)cc3)[C@H](O)[C@H](C)O2)Oc2ccc(cc2Cl)[C@H]1O	> 10 µg/mL	> 10 µg/mL	> 10 µg/mL	10 µg/mL (≈ 5.94 µM)
CC(C)C[C@H](C(=O)N[C@H]1C(=O)N[C@@H](CC(N)=O)C(=O)N[C@H]2C(=O)N[C@H]3C(=O)N[C@H](C(=O)N[C@H](C(=O)NCC(=O)O)c4cc(O)cc(O)c4-c4cc3ccc4O)[C@H](O)c3ccc(c(Cl)c3)Oc3cc2cc(c3O[C@@H]2O[C@@H](CO)[C@@H](O)[C@H](O)[C@@H]2O[C@H]2C[C@](C)(NC(=O)OCC3c4ccccc4-c4ccccc43)[C@H](O)[C@H](C)O2)Oc2ccc(cc2Cl)[C@H]1O)N(C)C(=O)OCC1c2ccccc2-c2ccccc21	5 µg/mL (≈ 2.56 µM)	> 10 µg/mL	10 µg/mL (≈ 5.13 µM)	5 µg/mL (≈ 2.56 µM)
CCC(CC)N[C@H](CC(C)C)C(=O)N[C@H]1C(=O)N[C@@H](CC(N)=O)C(=O)N[C@H]2C(=O)N[C@H]3C(=O)N[C@H](C(=O)N[C@H](C(=O)NCC(=O)O)c4cc(O)cc(O)c4-c4cc3ccc4O)[C@H](O)c3ccc(c(Cl)c3)Oc3cc2cc(c3O[C@@H]2O[C@@H](CO)[C@@H](O)[C@H](O)[C@@H]2O[C@H]2C[C@](C)(N)[C@H](O)[C@H](C)O2)Oc2ccc(cc2Cl)[C@H]1O	> 10 µg/mL	10 µg/mL (≈ 6.4 µM)	> 10 µg/mL	10 µg/mL (≈ 6.4 µM)
CN[C@H](CC(C)C)C(=O)N[C@H]1C(=O)N[C@@H](CC(N)=O)C(=O)N[C@H]2C(=O)N[C@H]3C(=O)N[C@H](C(=O)N[C@H](C(=O)O)c4cc(O)cc(O)c4-c4cc3ccc4O)[C@H](O)c3ccc(c(Cl)c3)Oc3cc2cc(c3O[C@@H]2O[C@H](CO)[C@@H](O)[C@H](O)[C@H]2O[C@H]2C[C@](C)(N)[C@H](O)[C@H](C)O2)Oc2ccc(cc2Cl)[C@H]1O [VANCOMYCIN]	> 10 µg/mL	0.62 µg/mL (≈ 0.428 µM)	2.5 µg/mL (≈ 1.73 µM)	1.25 µg/mL (≈ 0.863 µM)
CCCN(CCC)[C@H](CC(C)C)C(=O)N[C@H]1C(=O)N[C@@H](CC(N)=O)C(=O)N[C@H]2C(=O)N[C@H]3C(=O)N[C@H](C(=O)N[C@H](C(=O)NCC(=O)O)c4cc(O)cc(O)c4-c4cc3ccc4O)[C@H](O)c3ccc(c(Cl)c3)Oc3cc2cc(c3O[C@@H]2O[C@@H](CO)[C@@H](O)[C@H](O)[C@@H]2O[C@H]2C[C@](C)(Nc3ccc(Cl)cc3)[C@H](O)[C@H](C)O2)Oc2ccc(cc2Cl)[C@H]1O	> 10 µg/mL	5 µg/mL (≈ 2.96 µM)	> 10 µg/mL	5 µg/mL (≈ 2.96 µM)
CCC(CC)N[C@H](CC(C)C)C(=O)N[C@H]1C(=O)N[C@@H](CC(N)=O)C(=O)N[C@H]2C(=O)N[C@H]3C(=O)N[C@H](C(=O)N[C@H](C(=O)NCC(=O)O)c4cc(O)cc(O)c4-c4cc3ccc4O)[C@H](O)c3ccc(c(Cl)c3)Oc3cc2cc(c3O[C@@H]2O[C@@H](CO)[C@@H](O)[C@H](O)[C@@H]2O[C@H]2C[C@](C)(Nc3cccnc3)[C@H](O)[C@H](C)O2)Oc2ccc(cc2Cl)[C@H]1O	> 10 µg/mL	> 10 µg/mL	> 10 µg/mL	> 10 µg/mL
CCCN[C@H](CC(C)C)C(=O)N[C@H]1C(=O)N[C@@H](CC(N)=O)C(=O)N[C@H]2C(=O)N[C@H]3C(=O)N[C@H](C(=O)N[C@H](C(=O)NCC(=O)O)c4cc(O)cc(O)c4-c4cc3ccc4O)[C@H](O)c3ccc(c(Cl)c3)Oc3cc2cc(c3O[C@@H]2O[C@@H](CO)[C@@H](O)[C@H](O)[C@@H]2O[C@H]2C[C@](C)(Nc3ccc(Cl)cc3)[C@H](O)[C@H](C)O2)Oc2ccc(cc2Cl)[C@H]1O	> 10 µg/mL	10 µg/mL (≈ 6.08 µM)	> 10 µg/mL	10 µg/mL (≈ 6.08 µM)
CC(C)C[C@H](C(=O)N[C@H]1C(=O)N[C@@H](CC(N)=O)C(=O)N[C@H]2C(=O)N[C@H]3C(=O)N[C@H](C(=O)N[C@H](C(=O)NCC(=O)O)c4cc(O)cc(O)c4-c4cc3ccc4O)[C@H](O)c3ccc(c(Cl)c3)Oc3cc2cc(c3O[C@@H]2O[C@@H](CO)[C@@H](O)[C@H](O)[C@@H]2O[C@H]2C[C@](C)(Nc3cccnc3)[C@H](O)[C@H](C)O2)Oc2ccc(cc2Cl)[C@H]1O)N(CCc1ccccc1)CCc1ccccc1	> 10 µg/mL	> 10 µg/mL	> 10 µg/mL	> 10 µg/mL
CCCN(CCC)[C@H](CC(C)C)C(=O)N[C@H]1C(=O)N[C@@H](CC(N)=O)C(=O)N[C@H]2C(=O)N[C@H]3C(=O)N[C@H](C(=O)N[C@H](C(=O)NCC(=O)O)c4cc(O)cc(O)c4-c4cc3ccc4O)[C@H](O)c3ccc(c(Cl)c3)Oc3cc2cc(c3O[C@@H]2O[C@@H](CO)[C@@H](O)[C@H](O)[C@@H]2O[C@H]2C[C@](C)(Nc3ccc(-c4ccccc4)cc3)[C@H](O)[C@H](C)O2)Oc2ccc(cc2Cl)[C@H]1O	> 10 µg/mL	5 µg/mL (≈ 2.89 µM)	> 10 µg/mL	5 µg/mL (≈ 2.89 µM)
C/C=C/CN[C@H](CC(C)C)C(=O)N[C@H]1C(=O)N[C@@H](CC(N)=O)C(=O)N[C@H]2C(=O)N[C@H]3C(=O)N[C@H](C(=O)N[C@H](C(=O)NCC(=O)O)c4cc(O)cc(O)c4-c4cc3ccc4O)[C@H](O)c3ccc(c(Cl)c3)Oc3cc2cc(c3O[C@@H]2O[C@@H](CO)[C@@H](O)[C@H](O)[C@@H]2O[C@H]2C[C@](C)(Nc3ccc(OC)cc3)[C@H](O)[C@H](C)O2)Oc2ccc(cc2Cl)[C@H]1O	> 10 µg/mL	10 µg/mL (≈ 6.05 µM)	> 10 µg/mL	10 µg/mL (≈ 6.05 µM)
C/C=C/CN(C/C=C/C)[C@H](CC(C)C)C(=O)N[C@H]1C(=O)N[C@@H](CC(N)=O)C(=O)N[C@H]2C(=O)N[C@H]3C(=O)N[C@H](C(=O)N[C@H](C(=O)NCC(=O)O)c4cc(O)cc(O)c4-c4cc3ccc4O)[C@H](O)c3ccc(c(Cl)c3)Oc3cc2cc(c3O[C@@H]2O[C@@H](CO)[C@@H](O)[C@H](O)[C@@H]2O[C@H]2C[C@](C)(Nc3ccc(OC)cc3)[C@H](O)[C@H](C)O2)Oc2ccc(cc2Cl)[C@H]1O	> 10 µg/mL	10 µg/mL (≈ 5.86 µM)	> 10 µg/mL	> 10 µg/mL
CC(C)C[C@@H](N)C(=O)N[C@@H]1C(=O)N[C@@H](CC(N)=O)C(=O)N[C@H]2C(=O)N[C@H]3C(=O)N[C@H](C(=O)N[C@H](C(=O)O)c4cc(O)cc(O)c4-c4cc3ccc4O)[C@H](O)c3ccc(c(Cl)c3)Oc3cc2cc(c3O[C@@H]2O[C@H](CO)[C@@H](O)[C@H](O)[C@H]2O[C@H]2C[C@](C)(N)C(O)[C@H](C)O2)Oc2ccc(cc2Cl)[C@H]1O (stereo partly drawn) [DEMETHYLVANCOMYCIN]	> 10 µg/mL	< 0.6 µg/mL	2.5 µg/mL (≈ 1.74 µM)	< 0.6 µg/mL
